Tests used:
[1] = molecular target: Serine/threonine-protein kinase DCLK3 (Homo sapiens) (UniProt Q9C098)
[2] = molecular target: Serine/threonine-protein kinase PknB (Mycobacterium tuberculosis) (UniProt P9WI81)
[3] = molecular target: Serine/threonine-protein kinase 16 (Homo sapiens) (UniProt O75716)
[4] = molecular target: Peripheral plasma membrane protein CASK (Homo sapiens) (UniProt O14936)
[5] = molecular target: BMP-2-inducible protein kinase (Homo sapiens) (UniProt Q9NSY1)
[6] = molecular target: Phosphatidylinositol 4-phosphate 5-kinase type-1 gamma (Homo sapiens) (UniProt O60331)
[7] = molecular target: Dual specificity tyrosine-phosphorylation-regulated kinase 1A (Homo sapiens) (UniProt Q13627)
[8] = molecular target: Dual specificity protein kinase CLK4 (Homo sapiens) (UniProt Q9HAZ1)
Sequence of Dual specificity protein kinase CLK4 (Homo sapiens) (Q9HAZ1 whole entry, looked up): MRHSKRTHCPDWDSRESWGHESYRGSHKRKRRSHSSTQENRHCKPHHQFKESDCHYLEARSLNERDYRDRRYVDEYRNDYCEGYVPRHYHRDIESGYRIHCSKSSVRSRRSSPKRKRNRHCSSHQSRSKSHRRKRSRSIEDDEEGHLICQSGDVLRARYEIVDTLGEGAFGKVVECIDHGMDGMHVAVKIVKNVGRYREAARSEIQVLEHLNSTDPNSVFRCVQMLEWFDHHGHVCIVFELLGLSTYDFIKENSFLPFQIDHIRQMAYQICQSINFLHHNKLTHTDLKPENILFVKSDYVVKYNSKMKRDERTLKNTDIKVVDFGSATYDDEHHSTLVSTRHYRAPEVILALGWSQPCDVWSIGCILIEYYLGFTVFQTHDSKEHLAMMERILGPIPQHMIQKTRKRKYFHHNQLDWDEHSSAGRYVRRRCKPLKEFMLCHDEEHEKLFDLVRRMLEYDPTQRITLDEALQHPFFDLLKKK

[9] = molecular target: Serine/threonine-protein kinase pim-3 (Homo sapiens) (UniProt Q86V86)
[10] = molecular target: Death-associated protein kinase 3 (Homo sapiens) (UniProt O43293)
[11] = test system: Tyrosine-protein kinase ABL1 (Homo sapiens), P00519 [M351T]
[12] = molecular target: Fibroblast growth factor receptor 2 (Homo sapiens) (UniProt P21802)
[13] = molecular target: Phosphatidylinositol 4-kinase beta (Homo sapiens) (UniProt Q9UBF8)
[14] = molecular target: Atypical kinase COQ8A, mitochondrial (Homo sapiens) (UniProt Q8NI60)
Sequence of Atypical kinase COQ8A, mitochondrial (Homo sapiens) (Q8NI60 163-647 limits assumed): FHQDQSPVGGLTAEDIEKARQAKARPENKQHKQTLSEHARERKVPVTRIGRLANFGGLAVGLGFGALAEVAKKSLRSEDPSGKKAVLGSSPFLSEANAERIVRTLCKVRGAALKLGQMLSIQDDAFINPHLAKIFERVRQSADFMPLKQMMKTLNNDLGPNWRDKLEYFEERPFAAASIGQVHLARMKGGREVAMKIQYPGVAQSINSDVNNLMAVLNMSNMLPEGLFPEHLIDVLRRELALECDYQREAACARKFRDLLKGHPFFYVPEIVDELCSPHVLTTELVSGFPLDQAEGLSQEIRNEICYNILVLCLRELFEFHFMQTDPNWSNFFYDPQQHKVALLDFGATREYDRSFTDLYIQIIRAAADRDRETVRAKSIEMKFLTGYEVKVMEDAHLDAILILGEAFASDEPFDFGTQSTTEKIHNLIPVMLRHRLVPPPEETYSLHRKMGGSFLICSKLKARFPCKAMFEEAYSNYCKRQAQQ

[15] = molecular target: Serine/threonine-protein kinase PLK1 (Homo sapiens) (UniProt P53350)
[16] = molecular target: T1, Serine/threonine-protein kinase 17A (Homo sapiens) (UniProt Q9UEE5)
T1 sequence (whole entry): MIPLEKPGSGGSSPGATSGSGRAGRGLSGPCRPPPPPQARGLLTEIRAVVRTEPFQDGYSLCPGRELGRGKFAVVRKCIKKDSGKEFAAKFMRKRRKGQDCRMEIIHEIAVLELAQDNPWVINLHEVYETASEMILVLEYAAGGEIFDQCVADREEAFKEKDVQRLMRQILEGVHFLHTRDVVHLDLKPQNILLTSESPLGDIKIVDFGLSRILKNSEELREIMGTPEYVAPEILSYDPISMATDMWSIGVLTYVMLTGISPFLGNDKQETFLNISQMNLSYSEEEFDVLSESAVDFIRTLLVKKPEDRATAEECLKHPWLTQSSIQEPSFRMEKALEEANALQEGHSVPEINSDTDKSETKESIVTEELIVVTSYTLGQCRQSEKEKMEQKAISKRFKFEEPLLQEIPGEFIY

[17] = test system: Mast/stem cell growth factor receptor Kit (Homo sapiens), P10721 [V559D,V654A]
Sequence of Mast/stem cell growth factor receptor Kit (Homo sapiens), P10721 [V559D,V654A] (P10721 whole entry V559D/V654A): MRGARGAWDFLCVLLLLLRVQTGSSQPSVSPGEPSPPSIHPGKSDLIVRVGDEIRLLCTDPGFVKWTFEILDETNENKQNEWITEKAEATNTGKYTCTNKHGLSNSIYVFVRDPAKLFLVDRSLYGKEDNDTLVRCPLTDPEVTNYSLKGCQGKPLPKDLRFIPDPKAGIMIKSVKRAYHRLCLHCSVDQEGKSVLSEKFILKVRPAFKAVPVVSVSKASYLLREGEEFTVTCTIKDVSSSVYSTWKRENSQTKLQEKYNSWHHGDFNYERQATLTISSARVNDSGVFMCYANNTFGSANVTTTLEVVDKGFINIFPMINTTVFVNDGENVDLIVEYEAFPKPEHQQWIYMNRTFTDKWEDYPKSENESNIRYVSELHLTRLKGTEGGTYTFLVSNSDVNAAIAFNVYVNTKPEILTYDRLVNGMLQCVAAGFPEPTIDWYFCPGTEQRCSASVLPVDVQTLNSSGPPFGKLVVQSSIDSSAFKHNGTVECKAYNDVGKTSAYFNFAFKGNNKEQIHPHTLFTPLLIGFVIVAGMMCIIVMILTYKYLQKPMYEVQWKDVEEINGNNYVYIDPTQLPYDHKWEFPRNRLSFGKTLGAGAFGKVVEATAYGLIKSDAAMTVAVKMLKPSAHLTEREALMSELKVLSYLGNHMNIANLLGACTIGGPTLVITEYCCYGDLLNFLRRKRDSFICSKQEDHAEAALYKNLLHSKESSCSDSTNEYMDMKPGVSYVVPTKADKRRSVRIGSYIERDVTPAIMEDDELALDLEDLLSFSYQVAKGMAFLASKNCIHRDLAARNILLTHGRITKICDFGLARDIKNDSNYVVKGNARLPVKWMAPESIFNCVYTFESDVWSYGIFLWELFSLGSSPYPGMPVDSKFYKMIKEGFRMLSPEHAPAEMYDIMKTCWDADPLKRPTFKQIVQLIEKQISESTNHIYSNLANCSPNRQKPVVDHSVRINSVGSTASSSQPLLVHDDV

[18] = test system: ALK tyrosine kinase receptor (Homo sapiens), Q9UM73 [C1156Y]
[19] = molecular target: Platelet-derived growth factor receptor alpha (Homo sapiens) (UniProt P16234)
Sequence of Platelet-derived growth factor receptor alpha (Homo sapiens) (P16234 whole entry): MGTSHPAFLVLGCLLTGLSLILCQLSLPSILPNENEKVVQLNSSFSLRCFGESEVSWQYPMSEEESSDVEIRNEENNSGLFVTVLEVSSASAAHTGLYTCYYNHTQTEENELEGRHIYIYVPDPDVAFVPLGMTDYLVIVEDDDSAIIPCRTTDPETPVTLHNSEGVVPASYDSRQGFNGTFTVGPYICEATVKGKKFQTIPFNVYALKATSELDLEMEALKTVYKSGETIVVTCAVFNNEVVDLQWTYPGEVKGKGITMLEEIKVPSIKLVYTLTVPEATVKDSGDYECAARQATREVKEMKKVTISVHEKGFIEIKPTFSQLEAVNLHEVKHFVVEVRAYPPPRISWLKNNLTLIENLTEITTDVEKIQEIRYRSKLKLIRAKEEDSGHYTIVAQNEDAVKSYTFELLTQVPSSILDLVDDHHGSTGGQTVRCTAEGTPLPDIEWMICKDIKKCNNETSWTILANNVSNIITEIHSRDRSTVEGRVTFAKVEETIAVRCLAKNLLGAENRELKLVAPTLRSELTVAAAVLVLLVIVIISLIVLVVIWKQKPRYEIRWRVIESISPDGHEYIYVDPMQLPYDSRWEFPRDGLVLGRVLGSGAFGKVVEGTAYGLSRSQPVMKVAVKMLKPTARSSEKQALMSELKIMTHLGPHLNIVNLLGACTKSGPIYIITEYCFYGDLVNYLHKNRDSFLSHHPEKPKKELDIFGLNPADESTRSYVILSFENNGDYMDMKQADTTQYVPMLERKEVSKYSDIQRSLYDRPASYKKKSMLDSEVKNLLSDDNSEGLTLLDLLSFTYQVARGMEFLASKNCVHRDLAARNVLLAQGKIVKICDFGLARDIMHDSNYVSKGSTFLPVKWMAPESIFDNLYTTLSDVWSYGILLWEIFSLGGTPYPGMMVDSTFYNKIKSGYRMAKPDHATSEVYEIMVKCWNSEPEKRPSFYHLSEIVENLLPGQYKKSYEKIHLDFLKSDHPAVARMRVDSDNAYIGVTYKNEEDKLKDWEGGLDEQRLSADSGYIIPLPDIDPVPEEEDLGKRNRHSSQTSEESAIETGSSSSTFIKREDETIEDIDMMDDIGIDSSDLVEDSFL

[20] = molecular target: Tyrosine-protein kinase Lck (Homo sapiens) (UniProt P06239)
[21] = molecular target: Bone morphogenetic protein receptor type-2 (Homo sapiens) (UniProt Q13873)
[22] = molecular target: Serine/threonine-protein kinase pim-2 (Homo sapiens) (UniProt Q9P1W9)
[23] = molecular target: T2, Cytoplasmic tyrosine-protein kinase BMX (Homo sapiens) (UniProt P51813)
T2 sequence (whole entry): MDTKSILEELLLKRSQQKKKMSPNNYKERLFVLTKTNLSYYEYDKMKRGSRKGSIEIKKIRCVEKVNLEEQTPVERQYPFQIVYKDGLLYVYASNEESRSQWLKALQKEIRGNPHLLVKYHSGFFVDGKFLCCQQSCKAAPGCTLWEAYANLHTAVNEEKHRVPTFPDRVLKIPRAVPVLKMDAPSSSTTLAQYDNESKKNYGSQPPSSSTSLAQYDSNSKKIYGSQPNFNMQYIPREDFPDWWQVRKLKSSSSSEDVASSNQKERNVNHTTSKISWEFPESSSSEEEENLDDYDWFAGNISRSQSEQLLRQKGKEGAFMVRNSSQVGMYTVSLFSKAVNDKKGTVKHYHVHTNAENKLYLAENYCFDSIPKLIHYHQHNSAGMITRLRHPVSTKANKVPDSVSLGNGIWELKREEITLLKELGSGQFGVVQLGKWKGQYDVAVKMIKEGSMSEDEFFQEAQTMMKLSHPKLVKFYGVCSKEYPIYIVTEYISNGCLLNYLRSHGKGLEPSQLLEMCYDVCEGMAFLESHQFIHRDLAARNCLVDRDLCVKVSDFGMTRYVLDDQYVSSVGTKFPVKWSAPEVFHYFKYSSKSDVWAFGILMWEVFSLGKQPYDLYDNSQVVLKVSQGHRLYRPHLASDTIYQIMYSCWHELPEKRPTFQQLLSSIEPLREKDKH

[24] = molecular target: Serine/threonine-protein kinase TAO1 (Homo sapiens) (UniProt Q7L7X3)
[25] = molecular target: T3, Serine/threonine-protein kinase Sgk2 (Homo sapiens) (UniProt Q9HBY8)
T3 sequence (whole entry): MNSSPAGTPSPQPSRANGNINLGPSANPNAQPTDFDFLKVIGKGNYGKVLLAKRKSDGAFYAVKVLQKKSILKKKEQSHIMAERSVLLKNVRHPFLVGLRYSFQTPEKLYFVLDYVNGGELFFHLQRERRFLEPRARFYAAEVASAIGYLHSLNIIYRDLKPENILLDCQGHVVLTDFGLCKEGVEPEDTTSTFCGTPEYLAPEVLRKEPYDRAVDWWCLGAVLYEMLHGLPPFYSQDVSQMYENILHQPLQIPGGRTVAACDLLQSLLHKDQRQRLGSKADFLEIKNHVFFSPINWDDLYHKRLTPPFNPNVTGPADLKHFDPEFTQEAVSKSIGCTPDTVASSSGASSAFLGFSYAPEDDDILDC

[26] = Compound concentration 100.0 nM
[27] = Compound concentration 1000.0 nM

Measured: residual activity

Sequence of BMP-2-inducible protein kinase (Homo sapiens) (Q9NSY1 whole entry, looked up): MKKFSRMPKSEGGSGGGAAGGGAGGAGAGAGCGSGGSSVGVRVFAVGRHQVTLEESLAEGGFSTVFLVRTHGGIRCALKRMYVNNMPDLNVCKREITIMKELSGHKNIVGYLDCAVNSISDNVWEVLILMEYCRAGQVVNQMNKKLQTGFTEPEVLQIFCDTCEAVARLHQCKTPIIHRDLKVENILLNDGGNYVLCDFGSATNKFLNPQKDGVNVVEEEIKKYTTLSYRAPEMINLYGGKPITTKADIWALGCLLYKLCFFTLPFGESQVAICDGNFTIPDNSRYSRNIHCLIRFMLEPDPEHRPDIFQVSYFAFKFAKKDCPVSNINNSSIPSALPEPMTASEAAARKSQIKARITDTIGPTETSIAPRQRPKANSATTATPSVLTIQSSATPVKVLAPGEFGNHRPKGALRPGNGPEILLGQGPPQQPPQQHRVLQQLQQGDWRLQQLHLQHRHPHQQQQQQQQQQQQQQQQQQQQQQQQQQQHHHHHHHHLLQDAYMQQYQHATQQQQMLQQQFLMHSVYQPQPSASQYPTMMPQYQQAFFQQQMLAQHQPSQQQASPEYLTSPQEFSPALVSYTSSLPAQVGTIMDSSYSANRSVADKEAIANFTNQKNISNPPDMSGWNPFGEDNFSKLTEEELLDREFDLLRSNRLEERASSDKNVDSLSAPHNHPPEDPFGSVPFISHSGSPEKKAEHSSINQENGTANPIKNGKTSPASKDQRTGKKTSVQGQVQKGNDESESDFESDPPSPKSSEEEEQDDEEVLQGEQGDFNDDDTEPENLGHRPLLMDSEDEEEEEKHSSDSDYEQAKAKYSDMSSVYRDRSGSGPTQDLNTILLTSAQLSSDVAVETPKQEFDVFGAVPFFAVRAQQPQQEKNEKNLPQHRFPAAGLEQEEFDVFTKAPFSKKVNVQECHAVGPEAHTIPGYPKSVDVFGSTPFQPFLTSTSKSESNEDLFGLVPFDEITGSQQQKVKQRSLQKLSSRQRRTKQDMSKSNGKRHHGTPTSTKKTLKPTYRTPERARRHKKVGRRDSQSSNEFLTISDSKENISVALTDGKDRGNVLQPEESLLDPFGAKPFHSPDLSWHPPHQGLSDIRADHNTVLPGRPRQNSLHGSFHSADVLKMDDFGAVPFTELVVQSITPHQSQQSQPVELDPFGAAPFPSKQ
Sequence of Serine/threonine-protein kinase 16 (Homo sapiens) (O75716 whole entry): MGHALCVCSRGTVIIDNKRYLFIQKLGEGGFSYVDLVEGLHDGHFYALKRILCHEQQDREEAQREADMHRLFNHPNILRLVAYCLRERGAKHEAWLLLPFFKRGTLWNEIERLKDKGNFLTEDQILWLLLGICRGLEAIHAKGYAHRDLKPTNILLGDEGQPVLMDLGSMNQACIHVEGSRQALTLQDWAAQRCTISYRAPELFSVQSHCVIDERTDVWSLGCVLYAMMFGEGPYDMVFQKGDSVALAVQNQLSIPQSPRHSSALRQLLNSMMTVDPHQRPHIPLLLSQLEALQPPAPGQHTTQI

C[C@@H]1CN(c2cc(-c3n[nH]c4ccc(OC5(C)CC5)cc34)ncn2)C[C@H](C)O1 [MLi-2]
inactive: [1]; [26] 92% | [2]; [26] 95% | [3]; [26] 100% | [4]; [26] 59% | [5]; [26] 100% | [6]; [26] 92% | [7]; [26] 95% | [8]; [26] 87% | [9]; [26] 100% | [10]; [26] 96% | [11]; [26] 95% | [12]; [26] 96% | [13]; [26] 100% | [14]; [26] 85% | [15]; [26] 68% | [16]; [26] 100% | [17]; [26] 100% | [18]; [26] 89% | [19]; [26] 75% | [20]; [26] 100% | [21]; [26] 75% | [22]; [26] 88% | [23]; [26] 80% | [24]; [26] 86% | [25]; [26] 84%

C[C@@H]1CN(c2cc(-c3nn(C)c4ccc(OC5(C)CC5)cc34)ncn2)C[C@H](C)O1 [MLi-2-NC]
inactive: [1]; [27] 77% | [2]; [27] 100% | [3]; [27] 100% | [4]; [27] 93% | [5]; [27] 100% | [6]; [27] 90% | [7]; [27] 81% | [8]; [27] 100% | [9]; [27] 92% | [10]; [27] 89% | [11]; [27] 91% | [12]; [27] 100% | [13]; [27] 89% | [14]; [27] 100% | [15]; [27] 74% | [16]; [27] 81% | [17]; [27] 100% | [18]; [27] 82% | [19]; [27] 83% | [20]; [27] 94% | [21]; [27] 54% | [22]; [27] 100% | [23]; [27] 93% | [24]; [27] 82% | [25]; [27] 58%
